Patent US8927500B2, “Peptidomimetic macrocycles” (Aileron Therapeutics, Inc., priority 2012, dated 2015)
Where a SMILES comes first, the peptide text is derived from it. Bridges are numbered along the chain shown (N, C = ends). [ ]: non-standard residue; d: D form. R8 = C=CCCCCCC[C@@](C)(N)C(=O)O; Cha = N[C@@H](CC1CCCCC1)C(=O)O; Chg = N[C@H](C(=O)O)C1CCCCC1; hLeu = CC(C)CC[C@H](N)C(=O)O; S5 = C=CCCC[C@](C)(N)C(=O)O; Nle = CCCC[C@H](N)C(=O)O; Ac3c = NC1(C(=O)O)CC1; Aib = CC(C)(N)C(=O)O

Assays:
MDM2 = MDM2 (Homo sapiens, UniProt Q00987); test: Competitive fluorescence polarization assay for MDM2; assay type: binding; settings: competitive FP assay, MDM2; for IC50: read-out: IC50 (MDM2); for Ki: read-out: Ki (MDM2)
MDMX = molecular target: T1, MDMX (Homo sapiens, UniProt O15151); test: Competitive fluorescence polarization assay for MDMX; assay type: binding; settings: competitive FP assay; for IC50: read-out: IC50 (MDMX); for Ki: read-out: Ki (MDMX)
T1 sequence (O15151 1-125): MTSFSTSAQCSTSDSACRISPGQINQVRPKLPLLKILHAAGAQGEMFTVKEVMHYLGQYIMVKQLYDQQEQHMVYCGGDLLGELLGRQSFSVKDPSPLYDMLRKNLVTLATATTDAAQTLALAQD

MDM2, sequence (Q00987 1-125): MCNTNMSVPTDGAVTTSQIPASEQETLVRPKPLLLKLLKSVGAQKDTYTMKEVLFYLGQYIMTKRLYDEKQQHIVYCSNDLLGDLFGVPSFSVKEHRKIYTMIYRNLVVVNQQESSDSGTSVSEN

SMILES | IC50 (MDM2) [nM] | Ki (MDM2) [nM] | IC50 (MDMX) [nM] | Ki (MDMX) [nM]
CCCC[C@H](NC(=O)[C@H](C)NC(=O)[C@H](C)NC(=O)[C@]1(C)CCCC=CCCCCCC[C@@](C)(NC(=O)[C@H](Cc2ccccc2)NC(C)=O)C(=O)N[C@@H](C)C(=O)N[C@@H](Cc2ccc(O)cc2)C(=O)N[C@@H](Cc2c[nH]c3ccccc23)C(=O)N[C@@H](CCC(=O)O)C(=O)NC2(CC2)C(=O)N[C@@H](CC(C)C)C(=O)N1)C(N)=O [compound 14] (Ac-F[R8]AYWE[Ac3c]L[S5]AA[Nle]-NH2; staple 2-9) | 10 to 100 | < 10 | 10 to 100 | < 10
CSCC[C@H](NC(=O)[C@H](C)NC(=O)[C@H](C)NC(=O)[C@]1(C)CCCC=CCCCCCC[C@@](C)(NC(=O)[C@H](Cc2ccccc2)NC(C)=O)C(=O)N[C@@H](C)C(=O)N[C@@H](Cc2ccc(O)cc2)C(=O)N[C@@H](Cc2c[nH]c3ccccc23)C(=O)N[C@@H](CCC(=O)O)C(=O)NC2(CC2)C(=O)N[C@@H](CC(C)C)C(=O)N1)C(N)=O [compound 16] (Ac-F[R8]AYWE[Ac3c]L[S5]AAM-NH2; staple 2-9) | 10 to 100 | < 10 | 10 to 100 | 10 to 100
CC(=O)N[C@@H](Cc1ccccc1)C(=O)N[C@]1(C)CCCCCCC=CCCC[C@@](C)(C(=O)N[C@@H](C)C(=O)N[C@@H](C)C(=O)N[C@@H](CCC(C)C)C(N)=O)NC(=O)[C@H](CC(C)C)NC(=O)C2(CC2)NC(=O)[C@H](CCC(=O)O)NC(=O)[C@H](Cc2c[nH]c3ccccc23)NC(=O)[C@H](Cc2ccc(O)cc2)NC(=O)[C@H](C)NC1=O [compound 17] (Ac-F[R8]AYWE[Ac3c]L[S5]AA[hLeu]-NH2; staple 2-9) | 10 to 100 | < 10 | 10 to 100 | 10 to 100
CC(=O)N[C@@H](CC(=O)O)C(=O)N[C@@H](CC(C)C)C(=O)N[C@H](C(=O)N[C@@H](Cc1ccccc1)C(=O)N[C@]1(C)CCCCCCC=CCCC[C@@](C)(C(=O)N[C@@H](CCCNC(=N)N)C(=O)N[C@@H](CCCNC(=N)N)C(=O)N[C@@H](CC(C)C)C(=O)N[C@H](C(N)=O)C(C)C)NC(=O)[C@H](CC(C)C)NC(=O)[C@H](CCC(N)=O)NC(=O)[C@H](Cc2c[nH]cn2)NC(=O)[C@H](Cc2c[nH]c3ccccc23)NC(=O)[C@H](Cc2c[nH]cn2)NC(=O)[C@H](Cc2c[nH]cn2)NC1=O)[C@@H](C)O [compound 28] (Ac-DLTF[R8]HHWHQL[S5]RRLV-NH2; staple 5-12) | 10 to 100 | < 10 | 10 to 100 | 10 to 100
CC(=O)N[C@@H](Cc1ccccc1)C(=O)N[C@]1(C)CCCCCCC=CCCC[C@@](C)(C(=O)N[C@@H](CCCNC(=N)N)C(=O)N[C@@H](CCCNC(=N)N)C(=O)N[C@@H](CC(=O)O)C(=O)N[C@@H](CC2CCCCC2)C(N)=O)NC(=O)[C@H](CC(C)C)NC(=O)[C@H](CCC(N)=O)NC(=O)[C@H](Cc2c[nH]cn2)NC(=O)[C@H](Cc2c[nH]c3ccccc23)NC(=O)[C@H](Cc2c[nH]cn2)NC(=O)[C@H](Cc2c[nH]cn2)NC1=O [compound 30] (Ac-F[R8]HHWHQL[S5]RRD[Cha]-NH2; staple 2-9) | 100 to 1000 | 10 to 100 | 100 to 1000 | 10 to 100

Further lines, results first:

IC50 (MDM2) [nM] | Ki (MDM2) [nM] | IC50 (MDMX) [nM] | Ki (MDMX) [nM] | SMILES
10 to 100 | < 10 | 100 to 1000 | 10 to 100 | CSCC[C@H](NC(=O)[C@H](C)NC(=O)[C@H](CO)NC(=O)[C@]1(C)CCCC=CCCCCCC[C@@](C)(NC(=O)[C@H](Cc2ccccc2)NC(=O)[C@@H](NC(=O)[C@H](CC(C)C)NC(C)=O)[C@@H](C)O)C(=O)N[C@@H](C)C(=O)N[C@@H](Cc2ccc(O)cc2)C(=O)N[C@@H](Cc2c[nH]c3ccccc23)C(=O)N[C@@H](C)C(=O)N[C@@H](CCC(N)=O)C(=O)N[C@@H](CC(C)C)C(=O)N1)C(N)=O [compound 5] (Ac-LTF[R8]AYWAQL[S5]SAM-NH2; staple 4-11)
100 to 1000 | 10 to 100 | 100 to 1000 | 10 to 100 | CC(=O)N[C@@H](Cc1ccccc1)C(=O)N[C@]1(C)CCCCCCC=CCCC[C@@](C)(C(=O)N[C@@H](C)C(=O)N[C@@H](C)C(=O)N[C@H](C(N)=O)C2CCCCC2)NC(=O)[C@H](CC(C)C)NC(=O)C2(CC2)NC(=O)[C@H](CCC(=O)O)NC(=O)[C@H](Cc2c[nH]c3ccccc23)NC(=O)[C@H](Cc2ccc(O)cc2)NC(=O)[C@H](C)NC1=O [compound 20] (Ac-F[R8]AYWE[Ac3c]L[S5]AA[Chg]-NH2; staple 2-9)
100 to 1000 | 10 to 100 | 10 to 100 | 10 to 100 | CC(=O)N[C@@H](Cc1ccccc1)C(=O)N[C@]1(C)CCCCCCC=CCCC[C@@](C)(C(=O)N[C@@H](C)C(=O)N[C@@H](C)C(=O)N[C@@H](CC2CCCCC2)C(N)=O)NC(=O)[C@H](CC(C)C)NC(=O)C2(CC2)NC(=O)[C@H](CCC(=O)O)NC(=O)[C@H](Cc2c[nH]c3ccccc23)NC(=O)[C@H](Cc2ccc(O)cc2)NC(=O)[C@H](C)NC1=O [compound 21] (Ac-F[R8]AYWE[Ac3c]L[S5]AA[Cha]-NH2; staple 2-9)
> 1000 | 100 to 1000 | 100 to 1000 | 10 to 100 | CCCC[C@H](NC(=O)[C@H](Cc1c[nH]cn1)NC(=O)[C@H](Cc1c[nH]cn1)NC(=O)[C@]1(C)CCCC=CCCCCCC[C@@](C)(NC(=O)[C@H](Cc2ccccc2)NC(C)=O)C(=O)N[C@@H](C)C(=O)N[C@@H](Cc2ccc(O)cc2)C(=O)N[C@@H](Cc2c[nH]c3ccccc23)C(=O)N[C@@H](C)C(=O)N[C@@H](CCC(N)=O)C(=O)N[C@@H](CC(C)C)C(=O)N1)C(=O)N[C@@H](CC(C)C)C(N)=O [compound 38] (Ac-F[R8]AYWAQL[S5]HH[Nle]L-NH2; staple 2-9)
100 to 1000 | 100 to 1000 | 100 to 1000 | 10 to 100 | CC(=O)N[C@@H](Cc1ccccc1)C(=O)N[C@]1(C)CCCCCCC=CCCC[C@@](C)(C(=O)N[C@@H](CCC(N)=O)C(=O)N[C@@H](Cc2c[nH]cn2)C(=O)N[C@H](C(=O)N[C@H](CC(C)C)C(N)=O)C2CCCCC2)NC(=O)[C@H](CC(C)C)NC(=O)[C@H](CCC(N)=O)NC(=O)[C@H](C(C)C)NC(=O)[C@H](Cc2c[nH]c3ccccc23)NC(=O)[C@H](Cc2ccc(O)cc2)NC(=O)[C@H](C)NC1=O [compound 40] (Ac-F[R8]AYWVQL[S5]QH[Chg][dL]-NH2; staple 2-9)
100 to 1000 | 10 to 100 | 100 to 1000 | 100 to 1000 | CC(=O)N[C@@H](Cc1ccccc1)C(=O)N[C@]1(C)CCCCCCC=CCCC[C@@](C)(C(=O)N[C@@H](Cc2c[nH]cn2)C(=O)NC(C)(C)C(=O)N[C@@H](C)C(=O)N[C@H](C)C(N)=O)NC(=O)[C@H](CC(C)C)NC(=O)[C@H](CCC(N)=O)NC(=O)[C@H](Cc2ccc(O)cc2)NC(=O)[C@H](Cc2c[nH]c3ccccc23)NC(=O)[C@H](Cc2ccc(O)cc2)NC(=O)[C@H](C)NC1=O [compound 42] (Ac-F[R8]AYWYQL[S5]H[Aib]A[dA]-NH2; staple 2-9)
100 to 1000 | 10 to 100 | 100 to 1000 | 10 to 100 | CC(=O)N[C@@H](CC(C)C)C(=O)N[C@H](C(=O)N[C@@H](Cc1ccccc1)C(=O)N[C@]1(C)CCCCCCC=CCCC[C@@](C)(C(=O)N[C@@H](Cc2c[nH]cn2)C(=O)NC(C)(C)C(=O)N[C@@H](CCC(C)C)C(=O)N[C@H](C(N)=O)C(C)C)NC(=O)[C@H](CC(C)C)NC(=O)[C@H](CCC(N)=O)NC(=O)[C@H](C)NC(=O)[C@H](Cc2c[nH]c3ccccc23)NC(=O)[C@H](Cc2ccc(O)cc2)NC(=O)[C@H](C)NC1=O)[C@@H](C)O [compound 49] (Ac-LTF[R8]AYWAQL[S5]H[Aib][hLeu]V-NH2; staple 4-11)
